The source of these data is paper PMC9879403, “Oncolytic strategy using new bifunctional HDACs/BRD4 inhibitors against virus-associated lymphomas” (PLOS Pathogens, 2023).

The structures appear in SMILES notation. Where two headings read alike, the source gives them in different places.

In data set [1] the test system is KSHV. In kind it is cell-based.
Data set [2] relates to BCBL-1 cells. Briefly: PEL xenograft model (BCBL-1 cells i.p.). The method, then: (A) Plasma concentrations of (+)-JQ1, SAHA, or 009P1 after a single administration of 50 mg per kg body (i.p. injection) were presented as mean ± SD (n = 3 mice per time point). (B-E) NOD/SCID mice were injected i.p. with BCBL-1 cells. 72 h later, the compounds or vehicle were administered i.p. as described in the Methods, and weights were recorded weekly. At the end of the treatment period, the splenic tissues were collected from the vehicle or compound treated mice, compared and processed with the H&E and IHC staining. (F) Plasma concentrations of 009P1 after a single administration of 50 mg per kg body (oral gavage) were presented as mean ± SD (n = 3 mice per time point). (G-I) NOD/SCID mice were injected i.p. with BCBL-1 cells. 72 h later, the compounds or vehicle were administered orally as described in the Methods, and weights were recorded weekly.
In all NOD/SCID mice, 6–8-week-old, male (Jackson Laboratory, Ellsworth, Maine, USA), 1 × 10^7 BCBL-1 cells in 200 μL RMPI-1640 without FBS were injected intraperitoneally and then mice were randomized into treatment groups of 6 mice as described previously. The tested compounds or vehicle was administered initially at 72 h after BCBL-1 injections, and continued once daily, 2 days per week for 3 weeks. Weights were recorded weekly as a surrogate measure of tumor progression. At the end of experiment, the spleens of mice were excised for immunoblots and immunohistochemical analyses.
Formalin-fixed, paraffin-embedded tissues were microtome-sectioned to a thickness of 4 μm and placed on electromagnetically charged slides. Immunohistochemistry was performed as described previously, and the c-Myc and H3K9Ac antibodies were purchased from Abcam. Images were collected using an Olympus BX61 microscope equipped with a high resolution DP72 camera and CellSense image capture software.

The test system of data set [3] is HDACs. The experiment in a line: HDACs signaling by Western blot (H3K9Ac, H4K9Ac, Acetyl-tubulin). Format: cell-based. (In general: A western blot detects proteins with antibodies after separation by electrophoresis.)
Data set [4] deals with KSHV. Briefly: Viral DNA levels in PEL cells by qPCR. In kind it is cell-based. On the technique in general: Real-time PCR tracks product formation cycle by cycle.
For data set [5], the system named is BCBL-1. Briefly: WST-1 cytotoxicity assay, BCBL-1 (KSHV+ PEL). In kind it is cell-based. As to conditions: BCBL1, 72 h. The source says: (§1) Fig 2 Identification of newly synthesized dual inhibitors with anti-PEL activities. (A) The binding mode of (+)-JQ1 with BRD4^BD1 (PDB: 3MXF). BRD4^BD1 is shown as hot pink cartoon with gray surface. Asn140 in BRD4^BD1 is shown as sticks and colored in following pattern: atom C hot pink, atom N dark blue, and atom O yellow. (+)-JQ1 is shown as sticks and colored in following patten: atom C hot pink, atom N dark blue, atom O yellow, atom S golden, and atom Cl green. The solvent exposed region (SEG) of (+)-JQ1 are indicated with white arrow. (B) The binding modes of SAHA and entinostat with HDAC2 (PDB: 3MAX). HDAC2 is shown as blue cartoon with gray surface. Asp181 and His183 in HDAC2 are shown as sticks and colored in following pattern: atom C blue, atom N dark blue, and atom O yellow. The catalytic zinc ion in the active site of HDAC2 is shown as black sphere. SAHA is shown as sticks and colored in following pattern: atom C green, atom N dark blue, and atom O yellow. Entinostat is shown as sticks and colored in following pattern: atom C hot pink, atom N dark blue, and atom O yellow. The SEG of SAHA or entinostat is indicated with white arrow. Hydrogen bonds (H-bonds) are presented by red dash lines. (C) The HDACs/BRD4 dual inhibitors 002-011 were designed by fusing the key pharmacophores of (+)-JQ1 (pink) and HDAC inhibitors (blue), SAHA or entinostat, via various chemical linkers (green). (D) Anti-PEL activities of the new compounds. Five KSHV positive and two KSHV negative lymphoma cell lines were treated with indicated concentrations of these compounds for 72 h. Then the cytotoxicity was determined using the WST-1 assay. (+)-JQ1, SAHA and entinostat were used for the comparisons as single inhibitors. The CC50 for each compound was calculated using GraphPad Prism 5.0 software. Error bars represent S.D. for 3 independent experiments.
Fig 4 Identification of anti-PEL activities for compound 009 stereoisomers. (A) The chemical structures of anti-HDACs/BRD4 bifunctional molecules 009P1 and 009P2, as well as anti-HDACs or anti-BRD4 mono-functional molecules 009N1, 009N2, 009N3, and 009N4. (B-C) Four KSHV+ PEL cell lines were treated with indicated concentrations of 009P1, 009P2 or 009N1-N4 for 72 h, then the cytotoxicity was determined using the WST-1 assay. (D-I) BCBL-1 cells were treated with these compounds at the respective 2× CC50 for 24 h, then cell cycle (D-F) and apoptosis (G-I) were measured by flow cytometry analysis. Error bars represent S.D. for 3 independent experiments, ** = p<0.01 (vs vehicle control).
(§2) The cell viability following treatment with compounds was assessed by the WST-1 assay (Roche, Indianapolis, Indiana, USA) according to the manufacturer’s protocol as described previously. The absorbance signal was measured using a microplate reader (Biotek Synergy 2). The 50% cytotoxic concentration (CC50) for each compound was calculated from these dose-response curves using the software GraphPad Prism v5.0. Data were normalized as the fold change compared to the DMSO control.

Data set [6] can be described thus: WST-1 cytotoxicity assay, BJAB (KSHV negative lymphoma). Particulars: human; 50% cytotoxic concentration, 72 h, WST-1; read-out: KSHV negative lymphomas CC50, BJAB. Format: cell-based.
Text: as §1, §2
(In general: Tetrazolium assays rely on reduction of a dye to a coloured formazan, in cell work by metabolically active cells.)

Data set [7] has as its system BJAB.219. The experiment in a line: WST-1 cytotoxicity assay, BJAB.219 (KSHV-infected lymphoma). In kind it is cell-based. As to conditions: 72 h, read-out: KSHV-infected lymphomas CC50, BJAB.219.
Text: as §1
BCBL-1 and iSLK.219 cells were kindly provided by Dr. Pinghui Feng (University of Southern California). BL-41, BJAB, BCP-1, BC-1, BC-3, JSC-1, HUVEC cells were purchased from American Type Culture Collection (ATCC), and cultured as recommended by the manufacturer. For making BJAB.219 cells, BJAB cells were infected with rKSHV.219 stock by spinoculation as previously reported by centrifugation at 1500×g for 60 min [31]. Then, puromycin (10 μg/ml) was added into the medium at 72 h post-infection and the medium containing puromycin was replaced twice a week. After 6-week high concentration of puromycin selection, BJAB.219 cells were then cultured in the medium with 0.5 μg/ml puromycin.
The cell viability following treatment with compounds was assessed by the WST-1 assay (Roche, Indianapolis, Indiana, USA) according to the manufacturer’s protocol as described previously. The absorbance signal was measured using a microplate reader (Biotek Synergy 2). […]

Data set [8] in a line: WST-1 cytotoxicity assay, BL-41 (KSHV negative lymphoma). In kind it is cell-based. As to conditions: human; 50% cytotoxic concentration, 72 h, WST-1; read-out: KSHV negative lymphomas CC50, BL-41.
Text: as §1, §2

A short description of data set [9]: Toxicity study, oral administration at 100 mg/kg.
The mark [10] stands for this setting: read-out: KSHV-infected lymphomas CC50, BCBL-1.

One may read the CC50 as the concentration at which the toxic effect on the cells reaches its halfway point. Turning to `Cc1sc2c(c1C)C(c1ccc(Cl)cc1)=N[C@@H](CC(=O)O[C@H](C)c1ccc(C(=O)Nc3ccccc3N)cc1)c1nnc(C)n1-2` [009P1, (R)-1-(4-((2-aminophenyl)carbamoyl)phenyl)ethyl 2-((S)-4-(4-chlorophenyl)-2,3,9-trimethyl-6H-thieno[3,2-f][1,2,4]triazolo[4,3-a][1,4]diazepin-6-yl)acetate], the “Expression of viral genes (LANA, RTA, ORF26)” value in data set [1] is “significantly increased”. For the same molecule, in data set [2] (i.p., 20 mg/kg), the “PEL tumor progression (ascites formation, spleen enlargement)” value is recorded as “dramatically suppressed PEL tumor progression”; the “Tumor infiltration into the spleen (H&E)” value is “only diffuse small tumor nodules”; the “Visible toxicity in mice (abnormal weight loss)” value is on record as “not observed”. For the same molecule, in data set [2] (oral administration, 20 mg/kg), the “Tumor burden in mice (ascites formation, spleen enlargement)” value is on record as “effectively repressed tumor burden”. Besides, the “H3K9Ac, H4K9Ac and Acetyl-tubulin protein levels” value in [3] (BCBL-1 cells, 48 h, Western blot) is listed as “increased”. Also, in data set [4], the “Viral DNA levels” value is “slightly increased”. The CC50 in data set [5] (read-out: CC50, BCBL-1) was 16 nM.

Consider `O=C(CCCCCCC(=O)Nc1ccccc1)NO` [SAHA, suberoylanilide hydroxamic acid, reference compound], for which the CC50 at 72 h worked out at 3340 nM in data set [6] and 3940 nM in data set [8]. The “H3K9Ac, H4K9Ac and Acetyl-tubulin protein levels” value in data set [3] was “upregulated”. Besides, the CC50 in data set [7] (50% cytotoxic concentration, WST-1) is 560 nM; in [5] (setting [10]) it was 41 nM. In addition, the “Viral DNA levels” value in data set [4] was “obviously increased”.

As for `Cc1sc2c(c1C)C(c1ccc(Cl)cc1)=N[C@@H](CC(=O)OC(C)(C)C)c1nnc(C)n1-2` [(+)-JQ1, reference compound], the cytotoxic concentration (CC50) at 72 h in data set [6] came to 1110 nM; in [8], 680 nM. The “Toxicity in the mice” value in data set [9] was “severe toxicity”. Besides, the “Tumor infiltration into the spleen (H&E)” value in data set [2] (i.p., 50 mg/kg) is on record as “slightly reduced”. Besides, the “Visible toxicity in mice (abnormal weight loss)” value in [2] (i.p., 50 mg/kg) is “visible toxicity”. Besides, the CC50 was around 120 nM in data set [7] and 18 nM in [5] (setting [10]).
